According to US5726156A, “Cytokine regulatory agents and methods of use in pathologies and conditions associated with altered cytokine levels” (Trega Biosciences, Inc., priority 1995, dated 1998):

Tests used:
[1] = tested on: morphine-induced respiratory depression; experiment: Morphine-induced respiratory depression; assay type: in vivo, rabbits; details: 10 + 20 + 20 μg/kg/rabbit iv; end of experiment (80 min)
Description: Male Shelton rabbits (3-4 kg) were restrained and fitted around the thorax, just behind the front limbs, with a respiration transducer (Model F-RCT; Grass Instruments; Quincy Ma). The transducer was connected to a grass polygraph via an EKG cable. An intravenous line was established for drug administration by cannulating the marginal ear vein using a 25 G butterfly needle.
Rabbit breathing was allowed to stabilize, then morphine sulfate (2 mg/kg in 0.5 ml saline) was administered by intravenous (iv) injection and respiratory rate and depth were monitored for 10 min. A second dose of morphine was administered, then, after 10 min, EX-2 or EX-3 (10 μg/kg in 0.5 ml saline) was administered, iv, and rabbits were monitored for 20 min. Two additional doses of EX-2 or EX-3 (20 μg/kg in 1.0 ml saline) were administered at 20 min intervals, i.e., 40 min and 60 min after the first morphine injection.
Results were calculated as the percent change from baseline values and are expressed as the difference of the mean value of the treated group minus the mean value of the control group at the end of the experiment (80 min).

glomerulonephritis = experiment: Glomerulonephritis (nephrotoxic serum), albuminuria; assay type: in vivo, rats; details: 100 μg/kg per injection, 3 times per day
Description: Male Sprague-Dawley rats (weight 194-248 g) were immunized by subcutaneous injection of 1 mg normal rabbit IgG (Sigma Chemical Co.) in Freund's complete adjuvant (Sigma Chemical Co.). EX-2 was administered 3 times per day (100 μg/kg per injection) throughout the duration of the experiment. Seven days later, the rats were injected with 1.5 ml of nephrotoxic serum iv via dorsal penile vein. Urine, plasma, and serum were collected before injection of nephrotoxic serum at 4, 6, 24, 48, and 96 hr thereafter. […] Albuminuria was quantified by immunoelectrophoresis.

IL-1-induced fever = experiment: IL-1β-induced temperature increase (fever); assay type: in vivo, rats; details: 500 μg/kg IP
Description: Male Wistar rats (45-75 days old) were placed in a temperature controlled room held at 26° C., which is thermoneutral for the normal body temperature of rats, and were maintained in the room with free access to food and water for 24 hr prior to testing. On the morning of the study, rats were marked for identification and weighed. The temperature of each rat was determined by placing the animal in a regulatory cage designed to minimize stress and inserting a temperature probe (YSI probe #402) 3-5 cm into the animal's rectum. The temperature was recorded 15 sec after the reading stabilized. Measurements were repeated 1 hr later to establish a baseline temperature for each rat.
After the baseline temperatures were established, rats were injected IP with saline, IL-1β or LPS endotoxin. Rats then were injected IP with either saline (control) or various concentrations of EX-2, EX-3, or EX-4 (treated). The temperature of the rats was measured every hr for 6 hr and the inhibition by EX-2, EX-3, or EX-4 of the rise in temperature due to IL-1β or LPS was determined.
In addition, treatment with 50 or 150 μg/kg EX-2 inhibited LPS-induced fever by 45% or 52%, respectively, when measured 6 hr following LPS injection. Furthermore, treatment with 150 μg/kg EX-3 or EX-4 inhibited LPS-induced fever by 57% and 52%, respectively (Table II).

[2] = tested on: Carageenan-induced paw swelling; experiment: Carageenan-induced paw swelling; assay type: in vivo, mice; details: 1 μg/mouse; 2 hr time point
Description: Carageenan-induced paw swelling was induced using a modification of the methods of Hiltz and Lipton, Peptides 11:979-982 (1990); Vinegar et al., Fed. Proc. 46:118-126 (1987); and Vinegar et al., J. Pharmacol. Expt. Therap. 166:96-103 (1969), each of which is incorporated herein by reference. Briefly, adult female Balb/c mice were anesthetized by IP injection of 7 mg/kg ketoamine and 0.6 mg/kg rompun. Foot pad thickness was measured using a spring loaded micrometer (Swiss Precision Instruments). Foot pad thickness was expressed in units of 1/100 inch. After baseline measurements were obtained, mice were injected into a hind foot pad with either 0.2 ml physiologic saline (control) or varying doses of EX-2 or EX-3 in 0.2 ml saline (treated). The first injection was followed immediately by injection of 0.02 ml of 0.15% K-carageenan (Sigma Chemical Co.; St. Louis, Mo.).
Hind foot pad thickness was measured hourly for six hr, the change in thickness was determined and the percent reduction in swelling due to treatment with EX-2 was calculated.

[3] = tested on: kidney (renal ischemia/reperfusion); experiment: Renal ischemia-reperfusion injury; assay type: in vivo, rats; design: RVR: unit not given here; details: I/R + EX-2 (50 or 500 μg/kg iv, dose not given); 1 hr clamping, after 60 min reperfusion
Description: Sprague-Dawley rats (250-300 g) were anesthetized with inactin® (120 mg/kg). After deep anesthesia was assured, the rats were cannulated in the trachea with polyethylene (PE) tubing (PE 240), jugular vein, femoral artery, bladder (PE 50 for previous 3 cannulations), and left ureter (stretched PE 50). Once cannulation was completed, a 2 cm flank incision above the left kidney was performed and the renal pelvis and vascular bundle were exposed. The tissue surrounding the left renal artery was gently dissected away from the artery. The exposed renal artery was clamped for 1 hr using a small vascular cross-over clamp. Just prior to clamping, EX-2 (50 or 500 μg/kg), ketorolac (KETO, 1 mg/kg), or vehicle was administered intravenously (iv) After 1 hr of clamping (ischemia), the clamp was gently removed with care taken to avoid damaging either the renal artery or nerves.

Ac-Nle-Gln-His-(D)Phe-Arg-(D)Trp-Gly-NH2 [EX-2]
Reduction in Morphine-induced Respiratory Depression [1]: 50% | % Reduction, Glomerulonephritis, Urine Albumin (mg/day) (glomerulonephritis): 62% | Reduction in IL-1-induced Fever (IL-1-induced fever): 52% | Reduction in Carageenan-induced Paw Swelling [2]: 45% | GFR [3]: 0.5 ± 0.1 | RPF [3]: 2.3 ± 0.3 | RVR [3]: 1.8 ± 0.2
